“And” between values parts separate entries of the source, which are not always exact repeats. Identical values can stand only once. Inconclusive results and toxic doses are left out. Rule as the data show it: active = T/C of 150% or more; inactive = T/C below 125%.
Tested on: L1210 leukemia ip in BDF1 mice, survival T/C
Experiment: NCI In Vivo Anticancer Drug Screen. Data for tumor model L1210 Leukemia (intraperitoneal) in B6D2F1 (BDF1) mice
Settings: endpoint: mean survival time, higher = longer survival
How it was run: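 Tumor cells were implanted, animals were treated, and survival was followed. The result divides the treated measurement by the vehicle-control measurement.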

[1] = dose: 50.0 mg/kg/injection, schedule: Q01DX009 (ip), vehicle: saline
[2] = dose: 100.0 mg/kg/injection, schedule: Q01DX009 (ip), vehicle: saline
[3] = dose: 100.0 mg/kg/injection, schedule: Q04DX003 (ip), vehicle: saline
[4] = dose: 100.0 mg/kg/injection, schedule: Q01DX009 (ip), vehicle: Klucel (hydroxypropylcellulose) (HPC)
[5] = dose: 100.0 mg/kg/injection, schedule: Q04DX003 (ip), vehicle: Klucel (hydroxypropylcellulose) (HPC)
[6] = dose: 200.0 mg/kg/injection, schedule: Q01DX009 (ip), vehicle: Klucel (hydroxypropylcellulose) (HPC)
[7] = dose: 200.0 mg/kg/injection, schedule: Q04DX003 (ip), vehicle: Klucel (hydroxypropylcellulose) (HPC)
[8] = dose: 400.0 mg/kg/injection, schedule: Q01DX009 (ip), vehicle: Klucel (hydroxypropylcellulose) (HPC)
[9] = dose: 400.0 mg/kg/injection, schedule: Q04DX003 (ip), vehicle: Klucel (hydroxypropylcellulose) (HPC)
[10] = dose: 100.0 mg/kg/injection, schedule: Q01DX001 (ip), vehicle: saline
[11] = dose: 200.0 mg/kg/injection, schedule: Q01DX001 (ip), vehicle: saline
[12] = dose: 400.0 mg/kg/injection, schedule: Q01DX001 (ip), vehicle: saline
[13] = dose: 100.0 mg/kg/injection, schedule: Q04DX002 (ip), vehicle: saline

Measured: T/C

CCN(CC)CCOC(=O)c1ccc(N)cc1
inactive: dose: 12.5 mg/kg/injection, schedule: Q01DX009 (ip), vehicle: saline 97 % of control | dose: 25.0 mg/kg/injection, schedule: Q01DX009 (ip), vehicle: saline 103 % of control | dose: 25.0 mg/kg/injection, schedule: Q04DX003 (ip), vehicle: saline 101 % of control | [1] 100 % of control and 95 % of control | dose: 50.0 mg/kg/injection, schedule: Q04DX003 (ip), vehicle: saline 111 % of control | [2] 100 % of control and 101 % of control | [3] 101 % of control

CCCCCCCCCCCCCCP(I)(N(C)C)(N(C)C)N(C)C
inactive: dose: 0.78 mg/kg/injection, schedule: Q04DX002 (ip), vehicle: saline 107 % of control | dose: 1.56 mg/kg/injection, schedule: Q04DX002 (ip), vehicle: saline 113 % of control | dose: 3.13 mg/kg/injection, schedule: Q04DX002 (ip), vehicle: saline 113 % of control

CC[C@H](/C=C/[C@@H](C)[C@H]1CC[C@H]2[C@@H]3CC=C4C[C@@H](OC(=O)/C=C\C(=O)O)CC[C@]4(C)[C@H]3CC[C@]12C)C(C)C
inactive: dose: 12.5 mg/kg/injection, schedule: Q01DX009 (ip), vehicle: water 96 % of control | dose: 25.0 mg/kg/injection, schedule: Q01DX009 (ip), vehicle: water 86 % of control | dose: 25.0 mg/kg/injection, schedule: Q04DX003 (ip), vehicle: other 105 % of control | dose: 50.0 mg/kg/injection, schedule: Q04DX003 (ip), vehicle: other 92 % of control

O=[N+]([O-])c1cccc(N=P(c2ccccc2)(c2ccccc2)c2ccccc2)c1
inactive: [4] 95 % of control | [5] 117 % of control | [6] 95 % of control | [7] 95 % of control | [8] 88 % of control | [9] 88 % of control

O=C1Nc2ccccc2C1O (stereo not drawn)
inactive: [10] 101 % of control | [11] 101 % of control | [12] 108 % of control

CCc1cc2c(cc1C(=O)/C=C\C(=O)O)C(C)(C)CCC2(C)C
inactive: dose: 0.5 mg/kg/injection, schedule: Q01DX001 (ip), vehicle: saline 96 % of control | dose: 1.0 mg/kg/injection, schedule: Q01DX001 (ip), vehicle: saline 100 % of control | dose: 2.0 mg/kg/injection, schedule: Q01DX001 (ip), vehicle: saline 98 % of control | dose: 2.97 mg/kg/injection, schedule: Q01DX001 (ip), vehicle: saline 100 % of control | dose: 3.75 mg/kg/injection, schedule: Q01DX009 (ip), vehicle: saline with Tween-80 98 % of control | dose: 3.75 mg/kg/injection, schedule: Q04DX003 (ip), vehicle: acetone 101 % of control | dose: 4.5 mg/kg/injection, schedule: Q01DX001 (ip), vehicle: saline 104 % of control | dose: 6.75 mg/kg/injection, schedule: Q01DX001 (ip), vehicle: saline 104 % of control | dose: 7.5 mg/kg/injection, schedule: Q01DX009 (ip), vehicle: saline with Tween-80 94 % of control | dose: 7.5 mg/kg/injection, schedule: Q04DX003 (ip), vehicle: acetone 108 % of control | dose: 9.9 mg/kg/injection, schedule: Q01DX001 (ip), vehicle: saline 96 % of control | dose: 15.0 mg/kg/injection, schedule: Q01DX001 (ip), vehicle: saline 98 % of control | dose: 15.0 mg/kg/injection, schedule: Q04DX003 (ip), vehicle: acetone 98 % of control

CCCCOC(=O)c1ccc(OC(=O)Nc2cc(OC)ccc2OC)cc1
inactive: dose: 100.0 mg/kg/injection, schedule: Q04DX003 (ip), vehicle: saline with Tween-80 95 % of control | dose: 200.0 mg/kg/injection, schedule: Q04DX003 (ip), vehicle: saline with Tween-80 91 % of control | dose: 400.0 mg/kg/injection, schedule: Q04DX003 (ip), vehicle: saline with Tween-80 90 % of control

CN(C)CC1CCCCCC(Br)C1=O (stereo not drawn)
inactive: dose: 75.0 mg/kg/injection, schedule: Q01DX001 (ip), vehicle: other 98 % of control | dose: 150.0 mg/kg/injection, schedule: Q01DX001 (ip), vehicle: other 95 % of control | dose: 300.0 mg/kg/injection, schedule: Q01DX001 (ip), vehicle: other 107 % of control

C/C=C/c1nc2c(c(=O)n(C)c(=O)n2C)n1C
inactive: dose: 50.0 mg/kg/injection, schedule: Q01DX001 (ip), vehicle: carboxymethylcellulose (CMC) 106 % of control | dose: 100.0 mg/kg/injection, schedule: Q01DX001 (ip), vehicle: carboxymethylcellulose (CMC) 95 % of control | dose: 200.0 mg/kg/injection, schedule: Q01DX001 (ip), vehicle: carboxymethylcellulose (CMC) 103 % of control | dose: 400.0 mg/kg/injection, schedule: Q01DX001 (ip), vehicle: carboxymethylcellulose (CMC) 97 % of control

CCC(C)(OC(=O)c1ccc([N+](=O)[O-])cc1)C(C)C (stereo not drawn)
inactive: dose: 75.0 mg/kg/injection, schedule: Q04DX002 (ip), vehicle: saline with Tween-80 95 % of control | dose: 150.0 mg/kg/injection, schedule: Q04DX002 (ip), vehicle: saline with Tween-80 91 % of control

CCCCC(N)P(=O)(O)O (stereo not drawn)
inactive: dose: 25.0 mg/kg/injection, schedule: Q04DX002 (ip), vehicle: saline 110 % of control | dose: 50.0 mg/kg/injection, schedule: Q04DX002 (ip), vehicle: saline 105 % of control | [13] 95 % of control

O=[N+]([O-])c1ccc(C2SCSCS2)cc1
inactive: [5] 98 % of control | [6] 90 % of control | [7] 93 % of control | [8] 95 % of control | [9] 93 % of control

COc1cc2c(cc1OC)[C@H]1CNC[C@H]1[C@@H](c1ccccc1)C2
inactive: [1] 95 % of control | [2] 106 % of control | [3] 97 % of control | dose: 200.0 mg/kg/injection, schedule: Q01DX009 (ip), vehicle: saline 106 % of control | dose: 200.0 mg/kg/injection, schedule: Q04DX003 (ip), vehicle: saline 106 % of control

O=Cc1cc(O)c(O)c(Br)c1
inactive: dose: 75.0 mg/kg/injection, schedule: Q04DX003 (ip), vehicle: saline 100 % of control | dose: 150.0 mg/kg/injection, schedule: Q04DX003 (ip), vehicle: saline 87 % of control | dose: 300.0 mg/kg/injection, schedule: Q04DX003 (ip), vehicle: saline 98 % of control

CCCCc1ccc(C(=O)O)nc1.[Cu+2]
inactive: dose: 5.0 mg/kg/injection, schedule: Q01DX001 (ip), vehicle: saline 97 % of control | dose: 10.0 mg/kg/injection, schedule: Q01DX001 (ip), vehicle: saline 105 % of control | dose: 20.0 mg/kg/injection, schedule: Q01DX001 (ip), vehicle: saline 106 % of control

Nc1cccc(OCCCOc2cccc(N)c2)c1
inactive: dose: 50.0 mg/kg/injection, schedule: Q01DX009 (ip), vehicle: Klucel (hydroxypropylcellulose) (HPC) 96 % of control | [4] 101 % of control | [6] 90 % of control

CNCCCNCC(Cc1ccccc1)c1ccccc1 (stereo not drawn)
inactive: [13] 86 % of control

O=C(NCc1ccc(Cl)c(Cl)c1)Nc1ccccc1Cl
inactive: [4] 97 % of control | [6] 100 % of control | [8] 103 % of control

Cc1cc(O)c(C(C)(C)C)cc1N=O
inactive: dose: 50.0 mg/kg/injection, schedule: Q04DX003 (ip), vehicle: saline + alcohol 104 % of control | dose: 100.0 mg/kg/injection, schedule: Q04DX003 (ip), vehicle: saline + alcohol 101 % of control | dose: 200.0 mg/kg/injection, schedule: Q04DX003 (ip), vehicle: saline + alcohol 95 % of control

NC(=O)N1CCCC1
inactive: [10] 98 % of control | [11] 95 % of control | [12] 95 % of control

Nc1ncnc(N)c1NC(=O)c1cc(Br)c(OCc2ccccc2)c(Br)c1
inactive: dose: 100.0 mg/kg/injection, schedule: Q01DX001 (ip), vehicle: DMSO 95 % of control | dose: 200.0 mg/kg/injection, schedule: Q01DX001 (ip), vehicle: DMSO 95 % of control | dose: 400.0 mg/kg/injection, schedule: Q01DX001 (ip), vehicle: DMSO 95 % of control
